For twelve molecules, melting point and mortality results are on record in patent US7566683B2, “Ethylene derivatives and pesticides containing said derivatives” (priority 1996, dated 2009).

Structures are written as SMILES. Some results are limits rather than exact numbers.

Data set [1] relates to Green Peach Aphids (Myzus persicae Sulzer). In words: Insecticidal test for green peach aphids. In kind it is in vivo. The conditions noted are these: 144 h, 500 ppm spray (2.5 mg/cm^2) on cabbage leaf, apterous adults, larvae and adults counted after 6 days. The protocol:
Moistured filter paper was placed in each laboratory glass dish having an inner diameter of 3 cm, and a leaf cabbage having the same diameter as that of the dish was put on the filter paper. Four female, apterous adults of green peach aphids (Myzus persicae) were put on the cabbage leaf. Fllowing day, a chemical sample (2.5 mg/cm^2) was sprayed over the dishes, using a rotary sprinkler. […] After 6 days passed, the insects in each cylinder were observed, and mortality of the insects (larvae and adults) was determined according to the following equation. Each compound was tested in that manner for two groups of dishes. Mortality (%)=[number of insect killed/(number of insect killed+number of living insect)]×100

In data set [2] the test system is Diamond Back Moth (Plutella xylostella Linné). In words: Insecticidal test for diamond back moth. The conditions noted are these: 144 h, cabbage leaves dipped in 500 ppm aqueous emulsion, second larvae, 25° C., after 6 days. In kind it is in vivo. The protocol:
The leaves of cabbage were dipped in a 500 ppm aqueous emulsion of a compound of the invention for about 10 seconds. After having been dried in air, the thus-treated leaves were put into laboratory dishes. Ten (10) second larvae of diamond back moth (Plutella xylostella) were released in each dish. Each dish was covered with a perforated cover, and stored in a thermostatic chamber at 25° C. […] Each compound was tested in that manner for two groups of dishes.

In data set [3] the test system is Cucurbit Leaf Beetles (Aulacophora femoralis Motschulsky). As to the kind of experiment: Insecticidal test for cucurbit leaf beetles. In kind it is in vivo. The settings on record: 144 h, cucumber leaves dipped in 500 ppm solution, second instar nymphae, 25° C., after 6 days. The protocol:
The leaves of cucumbers were dipped in this chemical solution for about 10 seconds, dried in air, and put into a laboratory dish. Ten (10) second instar nymphae of cucurbit leaf beetles (Aulacophora femoralis) were released in each dish. Each dish was covered with a cover, and stored in a thermostatic chamber at 25° C. […] Each compound was tested in that manner for two groups of dishes.

Data set [4] has as its system Two-Spotted Spider Mites (Tetranychus urticae Koch). As to the kind of experiment: whole plant or invertebrate. The settings on record: foliar, 500 ppm solution sprayed 2 ml/cup on kidney bean leaf discs, larvae, 25° C., after 96 hours. In kind it is in vivo. The protocol:
The leaves of kidney bean plants were punched into 3 cm-diameter discs, using a leaf punch, and put onto moistured filter paper in a 7 cm-diameter styrol cup. Ten (10) larvae of two-spotted spider mites (Tetranychus urticae) were put to each leaf. […] The solution was sprayed over each cup in an amount of 2 ml/cup, using a rotary sprinkler, and the cups were stored in a thermostatic chamber at 25° C. […] Each compound was tested in that manner for two groups of cups.

Data set [5] concerns Brown Rice Planthopper (Nilaparvata lugens Stal). In words: Insecticidal test for brown rice planthopper. In kind it is in vivo. The settings on record: 144 h, 500 ppm solution applied to rice stems and leaves, second instar nymphae, after 6 days. From the text: The stems and leaves of rice-plants in 1/20,000 are pot were sufficiently applied with the resulting solution. After the thus-applied chemical solution was dried in air, each pot was covered with a cylindrical cover. Ten (10) second instar nymphae of brown rice planthoppers (Nilaparvata lugens) were released in each pot. After having been thus covered, the pots were stored in a thermostatic chamber. After 6 days passed, the insects in each pot were observed, and the mortality thereof was determined according to the following equation. Each compound was tested in that manner for two groups of pots. Mortality (%)=([number of insect killed/(number of insect killed+number of living insect)]×100

The melting point is the temperature, or range, at which the solid turns liquid. Take `Cn1nc(C(F)(F)F)c(C(O)=C(Br)n2ccc(-c3c(F)cccc3F)n2)c1Cl`: the melting point lay within 123 to 125 °C.
On the same count and under the same terms, as for `Cn1nc(Cl)c(C(=O)C(Br)c2ccccc2)c1Cl` (stereo not shown), the figure is 74.5 to 75.5 °C.
The term mortality denotes the share of the test organisms that died. Lower therefore signals a weak lethal effect. As for `Cn1nc(Cl)c(C(O)=C(C#N)n2ccc(-c3c(F)cccc3F)n2)c1Cl` [I-40, 2-{3-(2,6-difluorophenyl)pyrazol-1-yl}-3-(1-methyl-3,5-dichloropyrazol-4-yl)-3-hydroxyacrylonitrile], the mortality at 500 ppm in data set [1] is not below 80%; in data set [2], not below 80%; in data set [3], 100%; in data set [4] it was not below 80%.
With `Cn1nc(Cl)c(C(O)=C(C#N)c2csc(-c3ccccc3)n2)c1Cl` [II-1, 3-(1-methyl-3,5-dichloropyrazol-4-yl)-2-(2-phenylthiazol-4-yl)-3-hydroxyacrylonitrile], the mortality at 500 ppm is not below 80% in data set [5], not below 80% in data set [2] and 100% in data set [3].
In the case of `Cc1nc(C(F)(F)F)c(C(OC(=O)c2ccccc2)=C(C#N)c2csc(C(C)(C)C)n2)s1` [II-75, 2-(2-tert-butylthiazol-4-yl)-3-(2-methyl-4-trifluoromethylthiazol-5-yl)-3-benzoyloxyacrylonitrile], the mortality at 500 ppm in data set [5], in data set [1], in data set [2] and in data set [4] was not below 80% throughout.
For `Cn1nc(C(F)(F)F)c(C(OC(=O)C(C)(C)C)=C(C#N)c2nc(C(C)(C)C)cs2)c1Cl` [III-6, 3-(1-methyl-3-trifluoromethyl-5-chloropyrazol-4-yl)-2-(4-tert-butylthiazol-2-yl)-3-pivaloyloxyacrylonitrile], the mortality at 500 ppm is not below 80% in data set [5]; not below 80% in data set [1]; not below 80% in data set [2]; 100% in data set [3]; not below 80% in data set [4].
Take `Cn1nc(Cl)c(C(=O)OC(=C(C#N)c2ccc(C(F)(F)F)cc2)c2c(Cl)nn(C)c2Cl)c1Cl` [IV-5, 2-(4-trifluoromethylphenyl)-3-(1-methyl-3,5-dichloropyrazol-4-yl)-3-(1-methyl-3,5-dichloropyrazole-4-carbonyloxy)acrylonitrile]: the mortality at 500 ppm in data set [4] was not below 80%.
Still for that read-out and setting: as for `Cn1nc(Cl)c(C(O)=C(C#N)c2ccc(C(C)(C)C)cc2)c1Cl` [IV-18, 2-(4-tert-butylphenyl)-3-(1-methyl-3,5-dichloropyrazol-4-yl)-3-hydroxyacrylonitrile], the figure is not below 80%.
Still for that read-out and setting: as for `Cn1nc(C(F)(F)F)c(C(OC(=O)C(C)(C)C)=C(C#N)c2ccc(C(C)(C)C)cc2)c1Cl` [IV-24, 2-(4-tert-butylphenyl)-3-(1-methyl-3-trifluoromethyl-5-chloropyrazol-4-yl)-3-pivaloyloxyacrylonitrile], the figure is not below 80%.
Same read-out and setting: the figure for `COC(=O)OC(=C(C#N)c1ccc(C(C)(C)C)cc1)c1c(Cl)nn(C)c1Cl` [IV-36, 2-(4-tert-butylphenyl)-3-(3,5-dichloro-1-methylpyrazol-4-yl)-3-methoxycarbonyloxyacrylonitrile] is not below 80%.
For `Cn1nc(Cl)c(C(O)=C(C#N)c2coc(C(C)(C)C)n2)c1Cl` [V-40, 2-{2-tert-butyloxazol-4-yl}-3-(3,5-dichloro-1-methyl-pyrazol-4-yl)-3-hydroxyacrylonitrile], the results for the mortality at 500 ppm in data set [3] and in data set [4] were 100% and not below 80%, respectively.
`CCOCOC(=C(C#N)c1coc(C(C)(C)C)n1)c1c(C(F)(F)F)nn(C)c1Cl` [V-44, 2-(2-tert-butyloxazol-4-yl)-3-(5-chloro-1-methyl-3-trifluoromethylpyrazol-4-yl)-3-ethoxymethoxyacrylonitrile]: in data set [4], the mortality at 500 ppm was not below 80%.
